From BigSolDB 2.1

With O=C(O)COc1ccc(Cl)cc1 the solubility (mole fraction) (in 1,4-dioxane, 288.15 K) was 0.113, the solubility (mole fraction) (in 1,4-dioxane, 293.15 K) was 0.124 and the solubility (mole fraction) (in 1,4-dioxane, 298.15 K) was 0.135. For the same molecule, the solubility (mole fraction) (in 1,4-dioxane, 303.15 K) was 0.146, the solubility (mole fraction) (in 1,4-dioxane, 308.15 K) was 0.16 and the solubility (mole fraction) (in 1,4-dioxane, 313.15 K) was 0.176. For the same molecule, the solubility (mole fraction) (in 1,4-dioxane, 318.15 K) was 0.194, the solubility (mole fraction) (in 1,4-dioxane, 323.15 K) was 0.212 and the solubility (mole fraction) (in acetonitrile, 283.15 K) was 0.00781. It also gave a solubility (mole fraction) (in acetonitrile, 288.15 K) of 0.00938, a solubility (mole fraction) (in acetonitrile, 293.15 K) of 0.0114 and a solubility (mole fraction) (in acetonitrile, 298.15 K) of 0.0134. For the same molecule, the solubility (mole fraction) (in acetonitrile, 303.15 K) was 0.0159, the solubility (mole fraction) (in acetonitrile, 308.15 K) was 0.0198 and the solubility (mole fraction) (in acetonitrile, 313.15 K) was 0.0241. The solubility (mole fraction) (in acetonitrile, 318.15 K) was 0.0298, the solubility (mole fraction) (in acetonitrile, 323.15 K) was 0.0359 and the solubility (mole fraction) (in ethanol, 283.15 K) was 0.0308. For the same molecule, the solubility (mole fraction) (in ethanol, 288.15 K) was 0.0347, the solubility (mole fraction) (in ethanol, 293.15 K) was 0.0406 and the solubility (mole fraction) (in ethanol, 298.15 K) was 0.0472. The solubility (mole fraction) (in ethanol, 303.15 K) was 0.0545, the solubility (mole fraction) (in ethanol, 308.15 K) was 0.0643 and the solubility (mole fraction) (in ethanol, 313.15 K) was 0.0796. It also gave a solubility (mole fraction) (in ethanol, 318.15 K) of 0.0962, a solubility (mole fraction) (in ethanol, 323.15 K) of 0.114 and a solubility (mole fraction) (in ethyl acetate, 283.15 K) of 0.0266. For the same molecule, the solubility (mole fraction) (in ethyl acetate, 288.15 K) was 0.0303, the solubility (mole fraction) (in ethyl acetate, 293.15 K) was 0.036 and the solubility (mole fraction) (in ethyl acetate, 298.15 K) was 0.0413. It also gave a solubility (mole fraction) (in ethyl acetate, 303.15 K) of 0.0468, a solubility (mole fraction) (in ethyl acetate, 308.15 K) of 0.0537 and a solubility (mole fraction) (in ethyl acetate, 313.15 K) of 0.0637. The solubility (mole fraction) (in ethyl acetate, 318.15 K) was 0.0731, the solubility (mole fraction) (in ethyl acetate, 323.15 K) was 0.0827 and the solubility (mole fraction) (in ethyl formate, 283.15 K) was 0.0139. The solubility (mole fraction) (in ethyl formate, 288.15 K) was 0.0164, the solubility (mole fraction) (in ethyl formate, 293.15 K) was 0.0193 and the solubility (mole fraction) (in ethyl formate, 298.15 K) was 0.0223. For the same molecule, the solubility (mole fraction) (in ethyl formate, 303.15 K) was 0.0254, the solubility (mole fraction) (in ethyl formate, 308.15 K) was 0.0299 and the solubility (mole fraction) (in ethyl formate, 313.15 K) was 0.036. For the same molecule, the solubility (mole fraction) (in ethyl formate, 318.15 K) was 0.0423, the solubility (mole fraction) (in ethyl formate, 323.15 K) was 0.0487 and the solubility (mole fraction) (in isobutanol, 283.15 K) was 0.0146. The solubility (mole fraction) (in isobutanol, 288.15 K) was 0.0178, the solubility (mole fraction) (in isobutanol, 293.15 K) was 0.0224 and the solubility (mole fraction) (in isobutanol, 298.15 K) was 0.0286. It also gave a solubility (mole fraction) (in isobutanol, 303.15 K) of 0.0365, a solubility (mole fraction) (in isobutanol, 308.15 K) of 0.0453 and a solubility (mole fraction) (in isobutanol, 313.15 K) of 0.0558. It also gave a solubility (mole fraction) (in isobutanol, 318.15 K) of 0.0688, a solubility (mole fraction) (in isobutanol, 323.15 K) of 0.0843 and a solubility (mole fraction) (in isopropanol, 283.15 K) of 0.0214. It also gave a solubility (mole fraction) (in isopropanol, 288.15 K) of 0.0267, a solubility (mole fraction) (in isopropanol, 293.15 K) of 0.0324 and a solubility (mole fraction) (in isopropanol, 298.15 K) of 0.039. The solubility (mole fraction) (in isopropanol, 303.15 K) was 0.0476, the solubility (mole fraction) (in isopropanol, 308.15 K) was 0.0586 and the solubility (mole fraction) (in isopropanol, 313.15 K) was 0.0703. For the same molecule, the solubility (mole fraction) (in isopropanol, 318.15 K) was 0.0844, the solubility (mole fraction) (in isopropanol, 323.15 K) was 0.0997 and the solubility (mole fraction) (in methyl acetate, 283.15 K) was 0.0285. The solubility (mole fraction) (in methyl acetate, 288.15 K) was 0.0325, the solubility (mole fraction) (in methyl acetate, 293.15 K) was 0.0379 and the solubility (mole fraction) (in methyl acetate, 298.15 K) was 0.0433. For the same molecule, the solubility (mole fraction) (in methyl acetate, 303.15 K) was 0.0496, the solubility (mole fraction) (in methyl acetate, 308.15 K) was 0.0567 and the solubility (mole fraction) (in methyl acetate, 313.15 K) was 0.0659. It also gave a solubility (mole fraction) (in methyl acetate, 318.15 K) of 0.0766, a solubility (mole fraction) (in methyl acetate, 323.15 K) of 0.0882 and a solubility (mole fraction) (in n-butanol, 283.15 K) of 0.0243. The solubility (mole fraction) (in n-butanol, 288.15 K) was 0.0282, the solubility (mole fraction) (in n-butanol, 293.15 K) was 0.0343 and the solubility (mole fraction) (in n-butanol, 298.15 K) was 0.0415. For the same molecule, the solubility (mole fraction) (in n-butanol, 303.15 K) was 0.0501, the solubility (mole fraction) (in n-butanol, 308.15 K) was 0.0604 and the solubility (mole fraction) (in n-butanol, 313.15 K) was 0.0721. The solubility (mole fraction) (in n-butanol, 318.15 K) was 0.0855, the solubility (mole fraction) (in n-butanol, 323.15 K) was 0.101 and the solubility (mole fraction) (in n-butyl acetate, 283.15 K) was 0.0218. It also gave a solubility (mole fraction) (in n-butyl acetate, 288.15 K) of 0.0246, a solubility (mole fraction) (in n-butyl acetate, 293.15 K) of 0.0289 and a solubility (mole fraction) (in n-butyl acetate, 298.15 K) of 0.0334. It also gave a solubility (mole fraction) (in n-butyl acetate, 303.15 K) of 0.0387, a solubility (mole fraction) (in n-butyl acetate, 308.15 K) of 0.0446 and a solubility (mole fraction) (in n-butyl acetate, 313.15 K) of 0.0514. It also gave a solubility (mole fraction) (in n-butyl acetate, 318.15 K) of 0.0593, a solubility (mole fraction) (in n-butyl acetate, 323.15 K) of 0.0682 and a solubility (mole fraction) (in n-propanol, 283.15 K) of 0.0255. For the same molecule, the solubility (mole fraction) (in n-propanol, 288.15 K) was 0.0292, the solubility (mole fraction) (in n-propanol, 293.15 K) was 0.0348 and the solubility (mole fraction) (in n-propanol, 298.15 K) was 0.0415. For the same molecule, the solubility (mole fraction) (in n-propanol, 303.15 K) was 0.0506, the solubility (mole fraction) (in n-propanol, 308.15 K) was 0.0618 and the solubility (mole fraction) (in n-propanol, 313.15 K) was 0.0748. The solubility (mole fraction) (in n-propanol, 318.15 K) was 0.089, the solubility (mole fraction) (in n-propanol, 323.15 K) was 0.11 and the solubility (mole fraction) (in n-propyl acetate, 283.15 K) was 0.0235. It also gave a solubility (mole fraction) (in n-propyl acetate, 288.15 K) of 0.0268, a solubility (mole fraction) (in n-propyl acetate, 293.15 K) of 0.0303 and a solubility (mole fraction) (in n-propyl acetate, 298.15 K) of 0.035. The solubility (mole fraction) (in n-propyl acetate, 303.15 K) was 0.0398, the solubility (mole fraction) (in n-propyl acetate, 308.15 K) was 0.0454 and the solubility (mole fraction) (in n-propyl acetate, 313.15 K) was 0.0524. It also gave a solubility (mole fraction) (in n-propyl acetate, 318.15 K) of 0.0604, a solubility (mole fraction) (in n-propyl acetate, 323.15 K) of 0.0698 and a solubility (mole fraction) (in sec-butanol, 283.15 K) of 0.0224. For the same molecule, the solubility (mole fraction) (in sec-butanol, 288.15 K) was 0.0279, the solubility (mole fraction) (in sec-butanol, 293.15 K) was 0.034 and the solubility (mole fraction) (in sec-butanol, 298.15 K) was 0.0413. The solubility (mole fraction) (in sec-butanol, 303.15 K) was 0.0505, the solubility (mole fraction) (in sec-butanol, 308.15 K) was 0.0617 and the solubility (mole fraction) (in sec-butanol, 313.15 K) was 0.0745. The solubility (mole fraction) (in sec-butanol, 318.15 K) was 0.0888 and the solubility (mole fraction) (in sec-butanol, 323.15 K) was 0.107.
